No end group written: not given here.
Target: XOD (xanthine oxidase) enzyme (Sigma, derived from milk) (Bos taurus, UniProt P80457)
Experiment: XOD enzyme activity inhibition (XOD enzyme activity detection kit, uric acid absorption at 295 nm)
Conditions: for IC50: half-inhibitory concentration on XOD; for XOD enzyme activity inhibition: concentration three times the half-inhibitory concentration

XOD (xanthine oxidase) enzyme (Sigma, derived from milk), sequence (P80457 whole entry): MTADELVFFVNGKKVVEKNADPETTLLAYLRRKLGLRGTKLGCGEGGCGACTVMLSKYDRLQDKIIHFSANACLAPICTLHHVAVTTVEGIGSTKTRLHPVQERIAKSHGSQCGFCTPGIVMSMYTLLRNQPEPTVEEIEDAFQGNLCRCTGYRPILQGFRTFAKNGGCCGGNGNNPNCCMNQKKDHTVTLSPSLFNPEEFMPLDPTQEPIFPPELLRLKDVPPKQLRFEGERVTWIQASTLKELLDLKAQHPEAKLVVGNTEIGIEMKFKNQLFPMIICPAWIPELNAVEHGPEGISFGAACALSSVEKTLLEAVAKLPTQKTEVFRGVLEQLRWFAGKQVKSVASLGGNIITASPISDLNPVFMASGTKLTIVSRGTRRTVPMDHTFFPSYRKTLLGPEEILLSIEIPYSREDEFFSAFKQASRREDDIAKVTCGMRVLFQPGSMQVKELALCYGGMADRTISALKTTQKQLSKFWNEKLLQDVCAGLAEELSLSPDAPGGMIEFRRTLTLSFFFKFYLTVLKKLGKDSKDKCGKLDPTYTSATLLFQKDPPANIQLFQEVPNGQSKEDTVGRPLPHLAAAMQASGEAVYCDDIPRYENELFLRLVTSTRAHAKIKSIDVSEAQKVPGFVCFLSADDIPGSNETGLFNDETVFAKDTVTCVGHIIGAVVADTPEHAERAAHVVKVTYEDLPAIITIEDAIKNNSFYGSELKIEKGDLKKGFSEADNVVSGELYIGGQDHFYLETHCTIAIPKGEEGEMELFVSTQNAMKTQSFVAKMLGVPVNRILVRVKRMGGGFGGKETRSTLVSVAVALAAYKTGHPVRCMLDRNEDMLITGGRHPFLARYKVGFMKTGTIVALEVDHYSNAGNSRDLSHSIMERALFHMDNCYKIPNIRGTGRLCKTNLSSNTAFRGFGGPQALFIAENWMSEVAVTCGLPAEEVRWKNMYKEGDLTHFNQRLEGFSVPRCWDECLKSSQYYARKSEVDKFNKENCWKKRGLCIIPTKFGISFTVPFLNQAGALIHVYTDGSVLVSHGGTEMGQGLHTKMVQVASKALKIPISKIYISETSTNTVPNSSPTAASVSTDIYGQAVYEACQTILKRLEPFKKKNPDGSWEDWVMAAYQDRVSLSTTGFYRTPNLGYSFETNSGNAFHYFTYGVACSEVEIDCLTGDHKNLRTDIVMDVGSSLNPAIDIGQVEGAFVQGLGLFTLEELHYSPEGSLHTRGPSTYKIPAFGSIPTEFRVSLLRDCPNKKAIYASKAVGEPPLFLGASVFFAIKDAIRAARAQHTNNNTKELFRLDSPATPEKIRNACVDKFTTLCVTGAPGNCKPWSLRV

| Compound | IC50 (IC50(M), Table 5, molar) [M] | XOD enzyme activity inhibition | IC50 [M] | activity at 20 µg/mL (read-out: XOD activity (%)) [%] | activity at 40 µg/mL (read-out: XOD activity (%)) [%] | activity at 80 µg/mL (read-out: XOD activity (%)) [%] | other results |
| --- | --- | --- | --- | --- | --- | --- | --- |
| Oc1ncnc2[nH]ncc12 [Allopurinol, reference compound] |  |  |  |  |  |  | XOD enzyme activity retained (concentration 30 μg/mL): about 10%; activity at 0.2 µg/mL (read-out: XOD activity (%)): 59.4%; activity at 0.4 µg/mL (read-out: XOD activity (%)): 34.7%; activity at 0.8 µg/mL (read-out: XOD activity (%)): 31.2% |
| DNLPPLPK [Peptide S4] | 6.72e-05 | completely inhibited | 6.72e-05 | 87.9 | 67.7 | 43.2 |  |
| VPSGPLGPEGPR [Peptide S1] | 0.00275 |  |  |  |  |  | IC50 (same reaction system): 0.00275 M; activity at 2500 µg/mL (read-out: XOD activity (%)): 57.6%; activity at 5000 µg/mL (read-out: XOD activity (%)): 36.7%; activity at 10000 µg/mL (read-out: XOD activity (%)): 26.9% |

Further compounds by falling IC50 (IC50(M), Table 5, molar), results first:

| IC50 (IC50(M), Table 5, molar) [M] | XOD enzyme activity inhibition | IC50 [M] | activity at 20 µg/mL (read-out: XOD activity (%)) [%] | activity at 40 µg/mL (read-out: XOD activity (%)) [%] | activity at 80 µg/mL (read-out: XOD activity (%)) [%] | Compound | other results |
| --- | --- | --- | --- | --- | --- | --- | --- |
| 0.000125 | completely inhibited | 0.000125 |  |  |  | TGPLGPSPGP [Peptide S2] | activity at 50 µg/mL (read-out: XOD activity (%)): 80%; activity at 100 µg/mL (read-out: XOD activity (%)): 55.8%; activity at 200 µg/mL (read-out: XOD activity (%)): 17.9% |
| 5.82e-05 | completely inhibited | 5.82e-05 | 87.2 | 67.3 | 46.9 | HDLPLPLPE [Peptide S3] |  |

Reference: patent publication US20210047366A1, “ANDRIAS DAVIDIANUS CARTILAGE PREPARATION” (TSINGHUA UNIVERSITY, priority 2017, published 2021)
